pEC50, pIC50: −log10 of the molar value. Like-named read-outs stand apart in the source and are kept apart here.
Experiments:
[1] = molecular target: T1, hERG potassium channel (Homo sapiens, UniProt Q12809); test: hERG channel test (Qpatch / Qube); format: cell-based; conditions: CHO cells stably expressing hERG potassium channels, Qpatch hERG (Fig. S15)
T1 construct: host or cells: Chinese hamster ovary cells
Description: Two concentrations (1 and 30 μM, two replicates each) were tested at room temperature.

[2] = molecular target: T2, CYP2C19 (Homo sapiens, UniProt P33261); test: Cytochrome P450 inhibition, human liver microsomes; format: in vitro ADME
T2 construct: incubation of isoform-specific substrates with human liver microsomes; from tissue; host or cells: human liver microsomes
Description: (§1) Direct CYP inhibition studies were conducted using conditions described previously ([43]) following incubation of isoform-specific substrates with human liver microsomes. The formation of known metabolites mediated by a specific CYP isoform was monitored. CYP isoform-specific pathways (and positive control inhibitors) included CYP1A2: phenacetin O-deethylation (furafylline), CYP2B6: bupropion hydroxylation (PPP), CYP2C8: amodiaquine deethylation (quercetin) CYP2C9: tolbutamide methylhydroxylation (sulfaphenazole), CYP2C19: (S)-mephenytoin 4’-hydroxylation (ticlopidine), CYP2D6: dextromethorphan O-demethylation (quinidine), and CYP3A: midazolam 1’-hydroxylation and testosterone 6β-hydroxylation (ketoconazole). […] The organic solvent content was maintained at less than 1% (v/v). NADPH was added to initiate the reaction which was then quenched by the addition of acetonitrile containing internal standard at specified times. Concentrations of the isoform-specific metabolites were quantified by LC-MS (Waters Xevo TQD triple quadrupole MS coupled to a Waters Acquity UPLC system) relative to calibration standards prepared in pre-quenched microsomal matrix.
(§2) Time dependent inhibition was assessed using an “IC50 shift” method based on a previous publication ([44]). […] A shift in the IC50 in the presence of NADPH (relative to the absence) was used as an indication of time dependent inhibition. Reference direct and time-dependent inhibitors were included in the assays.

[3] = molecular target: T3, CYP2D6 (Homo sapiens, UniProt P10635); test: Cytochrome P450 inhibition, human liver microsomes; format: in vitro ADME
T3 construct: incubation of isoform-specific substrates with human liver microsomes; from tissue; host or cells: human liver microsomes
Description: as §1, §2

[4] = molecular target: T4, CYP2B6 (Homo sapiens, UniProt P20813); test: Cytochrome P450 inhibition, human liver microsomes; format: in vitro ADME
T4 construct: incubation of isoform-specific substrates with human liver microsomes; from tissue; host or cells: human liver microsomes
T4 sequence (P20813 1-491): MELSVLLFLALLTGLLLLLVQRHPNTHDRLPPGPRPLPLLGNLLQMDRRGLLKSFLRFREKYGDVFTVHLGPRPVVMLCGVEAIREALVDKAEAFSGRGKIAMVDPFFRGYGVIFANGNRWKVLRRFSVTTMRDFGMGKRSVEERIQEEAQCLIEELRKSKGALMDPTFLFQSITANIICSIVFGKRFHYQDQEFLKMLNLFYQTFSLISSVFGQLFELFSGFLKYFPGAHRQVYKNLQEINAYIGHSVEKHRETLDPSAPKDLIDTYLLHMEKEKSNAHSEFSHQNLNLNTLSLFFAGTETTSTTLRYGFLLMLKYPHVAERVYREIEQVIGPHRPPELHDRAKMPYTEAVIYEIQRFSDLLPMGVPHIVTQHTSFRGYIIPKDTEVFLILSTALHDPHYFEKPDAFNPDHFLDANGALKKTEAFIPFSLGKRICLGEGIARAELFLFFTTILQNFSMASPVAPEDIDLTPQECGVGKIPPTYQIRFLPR
Description: as §1, §2

[5] = molecular target: T5, CYP1A2 (Homo sapiens, UniProt P05177); test: Cytochrome P450 inhibition, human liver microsomes; format: in vitro ADME
T5 construct: incubation of isoform-specific substrates with human liver microsomes; from tissue; host or cells: human liver microsomes
T5 sequence (P05177 1-516): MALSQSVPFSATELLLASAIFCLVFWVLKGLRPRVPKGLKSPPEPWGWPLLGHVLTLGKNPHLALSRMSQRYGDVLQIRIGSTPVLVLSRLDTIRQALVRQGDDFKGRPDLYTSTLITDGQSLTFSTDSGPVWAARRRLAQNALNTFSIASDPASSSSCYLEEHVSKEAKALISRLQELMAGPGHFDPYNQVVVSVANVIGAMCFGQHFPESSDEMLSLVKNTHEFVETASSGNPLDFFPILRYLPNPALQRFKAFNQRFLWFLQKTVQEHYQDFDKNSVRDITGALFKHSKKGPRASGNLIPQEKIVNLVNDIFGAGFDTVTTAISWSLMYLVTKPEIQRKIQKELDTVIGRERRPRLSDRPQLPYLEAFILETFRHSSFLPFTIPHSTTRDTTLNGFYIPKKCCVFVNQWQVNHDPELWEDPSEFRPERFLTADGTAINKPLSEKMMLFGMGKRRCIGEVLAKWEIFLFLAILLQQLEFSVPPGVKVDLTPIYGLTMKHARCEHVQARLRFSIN
Description: as §1, §2

[6] = system: L. panamensis; test: Leishmania intramacrophage in vitro assay; format: cell-based; conditions: L. panamensis MHOM/PA/71/LS94
Description: (§3) A drug incubation period of 96 h was applied, and cells were stained with Giemsa for microscopic evaluation of cellular amastigote burdens. Percentage reduction compared to the burden in the infected non-treated control wells was used as a measure for drug activity.

[7] = system: L. guyanensis; test: Leishmania intramacrophage in vitro assay; format: cell-based; conditions: L. guyanensis MHOM/PE/02/PER 054/0
Description: as §3

[8] = system: L. infantum; test: Leishmania intramacrophage in vitro assay; format: cell-based
Description: as §3

[9] = system: L. tropica; test: Leishmania intramacrophage in vitro assay; format: cell-based; conditions: L. tropica MHOM/AF/2015/HTD7
Description: as §3

[10] = system: L. major; test: Leishmania intramacrophage in vitro assay; format: cell-based
Description: as §3

[11] = molecular target: T6, human cytochrome bc1 complex (Homo sapiens, UniProt P00156); test: Human complex III inhibition assay; format: biochemical
T6 construct: Preparation of mitochondria from a human cell line (THP-1); endogenous in cells; host or cells: THP-1 (human) mitochondria
Description: Preparation of mitochondria from a human cell line (THP-1) was performed following published procedure ([21]). The protocol for the assay has been described in ([22]).

[12] = with NADPH preincubation, read-out: Time-dependent inhibition IC50
[13] = without NADPH preincubation, read-out: Time-dependent inhibition IC50
[14] = L. infantum MHOM/BR/2007/WC (L3015)
[15] = L. infantum MHOM/ES/2016/LLM-2346
[16] = L. infantum MHOM/FR/96/LEM3323 Cl4 MIL-R (miltefosine resistant)
[17] = L. infantum MHOM/FR/96/LEM3323 Cl4 PM-R (paromomycin resistant)
[18] = L. infantum MHOM/MA/67/ITMAP263

T2 sequence (P33261 whole entry, canonical isoform): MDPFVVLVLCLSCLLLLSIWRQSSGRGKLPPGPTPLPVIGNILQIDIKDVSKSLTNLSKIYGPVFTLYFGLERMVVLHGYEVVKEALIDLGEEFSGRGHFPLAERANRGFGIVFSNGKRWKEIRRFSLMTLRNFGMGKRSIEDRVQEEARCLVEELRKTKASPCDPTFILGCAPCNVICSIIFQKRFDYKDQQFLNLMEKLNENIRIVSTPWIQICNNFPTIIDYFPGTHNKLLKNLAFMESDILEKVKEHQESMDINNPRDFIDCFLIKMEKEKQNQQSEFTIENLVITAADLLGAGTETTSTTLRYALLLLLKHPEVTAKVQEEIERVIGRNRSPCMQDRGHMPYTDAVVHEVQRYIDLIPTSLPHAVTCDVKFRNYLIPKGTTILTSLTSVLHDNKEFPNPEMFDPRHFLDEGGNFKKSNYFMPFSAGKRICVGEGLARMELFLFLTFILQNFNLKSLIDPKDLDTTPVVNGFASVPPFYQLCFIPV
T3 sequence (P10635 whole entry, canonical isoform): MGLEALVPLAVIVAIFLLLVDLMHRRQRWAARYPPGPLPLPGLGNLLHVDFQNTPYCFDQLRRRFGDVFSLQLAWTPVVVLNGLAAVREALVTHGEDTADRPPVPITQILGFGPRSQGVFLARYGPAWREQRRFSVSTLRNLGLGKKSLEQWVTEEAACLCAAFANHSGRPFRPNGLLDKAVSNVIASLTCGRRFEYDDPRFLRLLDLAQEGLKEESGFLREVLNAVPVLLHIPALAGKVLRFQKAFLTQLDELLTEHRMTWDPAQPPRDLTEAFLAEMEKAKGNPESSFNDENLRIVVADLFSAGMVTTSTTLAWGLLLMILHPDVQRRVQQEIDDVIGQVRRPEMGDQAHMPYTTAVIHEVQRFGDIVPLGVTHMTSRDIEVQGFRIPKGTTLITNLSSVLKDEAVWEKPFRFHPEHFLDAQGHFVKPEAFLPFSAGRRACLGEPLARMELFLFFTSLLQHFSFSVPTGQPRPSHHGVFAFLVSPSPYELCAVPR
T1 sequence (Q12809 whole entry): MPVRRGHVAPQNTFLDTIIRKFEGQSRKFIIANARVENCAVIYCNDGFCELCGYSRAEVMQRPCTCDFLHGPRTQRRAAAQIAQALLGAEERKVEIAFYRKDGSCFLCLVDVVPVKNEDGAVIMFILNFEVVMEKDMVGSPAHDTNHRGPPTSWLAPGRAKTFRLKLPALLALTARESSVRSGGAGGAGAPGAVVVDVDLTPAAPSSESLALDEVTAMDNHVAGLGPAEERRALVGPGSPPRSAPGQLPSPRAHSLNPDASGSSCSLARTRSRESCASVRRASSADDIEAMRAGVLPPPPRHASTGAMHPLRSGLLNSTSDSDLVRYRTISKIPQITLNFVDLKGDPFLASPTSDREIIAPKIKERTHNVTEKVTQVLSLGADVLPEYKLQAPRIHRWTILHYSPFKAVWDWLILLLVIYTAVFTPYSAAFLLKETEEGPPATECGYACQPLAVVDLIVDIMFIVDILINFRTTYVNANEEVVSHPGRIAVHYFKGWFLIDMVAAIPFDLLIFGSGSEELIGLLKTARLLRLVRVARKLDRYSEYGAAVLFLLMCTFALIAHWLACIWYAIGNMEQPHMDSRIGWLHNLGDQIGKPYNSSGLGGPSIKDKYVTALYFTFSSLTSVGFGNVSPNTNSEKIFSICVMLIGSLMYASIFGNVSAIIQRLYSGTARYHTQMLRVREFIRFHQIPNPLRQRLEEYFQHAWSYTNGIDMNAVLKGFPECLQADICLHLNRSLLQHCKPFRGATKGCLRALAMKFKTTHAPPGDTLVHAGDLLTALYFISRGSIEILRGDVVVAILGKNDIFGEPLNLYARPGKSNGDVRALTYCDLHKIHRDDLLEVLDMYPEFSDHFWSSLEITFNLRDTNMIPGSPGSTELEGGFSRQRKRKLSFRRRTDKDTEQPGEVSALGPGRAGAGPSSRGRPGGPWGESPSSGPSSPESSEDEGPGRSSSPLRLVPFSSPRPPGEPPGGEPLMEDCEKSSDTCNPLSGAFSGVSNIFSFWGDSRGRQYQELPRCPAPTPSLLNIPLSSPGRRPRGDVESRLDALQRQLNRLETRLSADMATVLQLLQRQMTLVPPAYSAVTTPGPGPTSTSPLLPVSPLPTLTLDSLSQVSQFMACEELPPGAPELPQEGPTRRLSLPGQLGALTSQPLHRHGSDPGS

Cc1[nH]c2nc(N)nc(C)c2c1-c1ccc(C#N)c2c1OCO2 [DNDI-6174]
pIC50 [1]: 4.50 | pIC50 ([2]; CYP2C19, read-out: Direct inhibition IC50): 4.72 | pIC50 [2, 12]: 5.13 | pIC50 [2, 13]: 4.87 | pIC50 ([3]; CYP2D6, read-out: Direct inhibition IC50): 4.72 | pIC50 [3, 12]: 6.31 | pIC50 [3, 13]: 5.01 | pIC50 ([4]; CYP2B6, read-out: Direct inhibition IC50): < 4.70 | pIC50 [4, 12]: < 4.70 | pIC50 [4, 13]: < 4.70 | pIC50 ([5]; CYP1A2, read-out: Direct inhibition IC50): 5.29 | pIC50 [5, 12]: 6.00 | pIC50 [5, 13]: 5.47 | pEC50 [6]: 7.40 | EC90 [6]: 85 nM | pEC50 [7]: 7.92 | EC90 [7]: 39 nM | pEC50 [8, 14]: 7.15 | EC90 [8, 14]: 180 nM | pEC50 [8, 15]: 6.68 | EC90 [8, 15]: 1520 nM | pEC50 ([8]; L. infantum MHOM/FR/96/LEM3323): 7.30 | EC90 ([8]; L. infantum MHOM/FR/96/LEM3323): 180 nM | pEC50 [8, 16]: 7.15 | EC90 [8, 16]: 220 nM | pEC50 [8, 17]: 7.10 | EC90 [8, 17]: 170 nM | pEC50 [8, 18]: 6.80 | EC90 [8, 18]: 440 nM | pEC50 [9]: 6.44 | EC90 [9]: 2180 nM | pEC50 ([10]; L. major MHOM/IL/81/Friedlin): 7.05 | EC90 ([10]; L. major MHOM/IL/81/Friedlin): 900 nM | pEC50 ([10]; L. major MHOM/SA/85/JISH118): 6.13 | EC90 ([10]; L. major MHOM/SA/85/JISH118): 11400 nM | inhibition at 200 µM [11]: < 20%
